Data reported in patent US7667052B2 (Eisai R&D Management Co., Ltd., priority 2003, dated 2010).

tested on: transcription from VEGF promoter; experiment: VEGF transcription-suppressing activity, VEGF-PLAP reporter in U251/1-8 cell; type: cell-based; details: Homo sapiens, U-251; U251/1-8 cell, PLAP activity, low oxygen 18 hours; read-out: IC50 values of VEGF transcription-suppressing activity (range given)
Description: In order to prepare reporter system reflecting transcription from VEGF promoter, VEGF promoter sequence was cloned, and inserted in secretory alkali phosphatase (PLAP) vector to construct reporter vector.
In order to obtain the promoter region of human VEGF, VEGF genome was cloned from phage library. PCR primers having the sequences described in Sequence Numbers 1 and 2 were designed based on VEGF cDNA (GenBank accession number: X62568) and a fragment having about 340 bp was obtained by carrying out PCR. Human genome phage library (Human genomic library, Clontech Co.) was screened using this as a probe to obtain pUC18-VEGFA containing about 5.4 kb of VEGF 5′ flanking region. The pUC18-VEGFA was cleaved by KpnI/NheI, VEGF promoter region of about 2.3 kb obtained was inserted in the multi cloning site KpnI/NheI of secretory alkali phosphatase (PLAP) vector (Goto et al, Mol. Pharmacol., 49, 860-873, 1996), and thus, VEGF-PLAP vector was constructed.
The above-mentioned VEGF-PLAP vector was introduced in the U251 cell cultured in the DULBECCO-modified eagle medium (DMEM; manufactured by SIGMA Co., Ltd.) containing 10% fetal calf serum, and cultured in the presence of 1 mg/ml G418 (Merck Co.) to establish G418 resistant stable clone (U251/1-8 cell).
It was confirmed that U251/1-8 cell secreted PLAP under low oxygen (2% O2 incubator) in the same manner as in the report (Cell. Mol. Biol. Res. 40, 35-39, 1994) and was a reporter system reflecting the transcription from VEGF promoter. The screening of the compound suppressing VEGF production which was induced by low oxygen stimulation was carried out below using the clone.
In order to remove the influence of alkaline phosphates in serum, U251/1-8 cell was rinsed twice with the adequate amount of PBS (Phosphate buffered saline), diluted in the DMEM medium containing 10% of serum in which alkaline phosphates was inactivated by the treatment of 60° C. for 20 min., and dispensed in 96-well plates by 4×10^4 cells/180 μl.
After culturing at 37° C. overnight in a CO2 incubator (5% CO2), 20 μL of the above-mentioned incubation solution containing the test compound diluted with 3-fold succession was added, and then they were incubated in a low oxygen ([…]) incubator for 18 hours. With respect to the PLAP activity in the culture supernatants, 10 μl of the supernatants was added to 50 μl of 0.28 M Na2CO3—NaHCO3 buffer solution (pH 10.0, 8.0 mM MgSO4), and finally 50 μl of alkaline phosphatase substrate (LUMISTEIN, Genomescience Co.) was added. After reacting for one hour, the alkaline phosphatase activity of the PLAP was measured by detecting the chemical luminescence by a micro plate reader (Perkin-Elmer Co.).
The PLAP activity under usual oxygen was set as 0%, the PLAP activity of cell which was treated under low oxygen was set as 100%, and the concentration suppressing the PLAP activity by 50% was set as the IC50 value of PLAP.

Q: With `CCC(OC(=O)c1cccnc1)C(C)C1OC1CC(C)/C=C/C=C(\C)C1OC(=O)CC(O)CCC(C)(O)C(OC(C)=O)/C=C/C1C` (stereo not drawn) [B29, (8E,12E,14E)-7-Acetoxy-3-6-dihydroxy-6,10,12,16,20-pentamethyl-21-nicotinoxy-18,19-epoxytricosa-8,12,14-trien-11-olide] as the molecule, how does the IC50 read?
A: 0.5 to 100 nM

Q: With `CCC(O)C(C)C1OC1CC(C)/C=C/C=C(\C)C1OC(=O)CC(OC(=O)c2ccccc2)CCC(C)(O)C(OC(C)=O)/C=C/C1C` (stereo not drawn) [B30-2, (8E,12E,14E)-7-acetoxy-3-benzoloxy-6,21-dihydroxy-6,10,12,16,20-pentamethyl-18,19-epoxytricosa-8,12,14-trien-11-olide] as the molecule, how does the IC50 read?
A: 0.5 to 100 nM

Q: With `CCC(OC(=O)c1ccccc1)C(C)C1OC1CC(C)/C=C/C=C(\C)C1OC(=O)CC(O)CCC(C)(O)C(OC(C)=O)/C=C/C1C` (stereo not drawn) [B30-3, (8E,12E,14E)-7-acetoxy-21-benzoloxy-3,6-dihydroxy-6,10,12,16,20-pentamethyl-18,19-epoxytricosa-8,12,14-trien-11-olide] as the molecule, how does the IC50 read?
A: 0.5 to 100 nM

Q: For `CCC(OC(N)=O)C(C)C1OC1CC(C)/C=C/C=C(\C)C1OC(=O)CC(OC(N)=O)CCC(C)(O)C(OC(C)=O)/C=C/C1C` (stereo not drawn) [B33-1, (8E,12E,14E)-7-Acetoxy-3,21-dicarbamoyloxy-6-hydroxy-6,10,12,16,20-pentamethyl-18,19-epoxytricosa-8,12,14-trien-11-olide], which IC50 is on record?
A: 0.5 to 100 nM

Q: `CCC(O)C(C)C1OC1CC(C)/C=C/C=C(\C)C1OC(=O)CC(OC(N)=O)CCC(C)(O)C(OC(C)=O)/C=C/C1C` (stereo not drawn) [B35-1, (8E,12E,14E)-7-Acetoxy-3-carbamoyloxy-6,21-dihydroxy-6,10,12,16,20-pentamethyl-18,19-epoxytricosa-8,12,14-trien-11-olide] was tested. Which IC50 did it give?
A: 0.5 to 100 nM

Q: Which IC50 does the source give for `CCC(OC(N)=O)C(C)C1OC1CC(C)/C=C/C=C(\C)C1OC(=O)CC(O)CCC(C)(O)C(OC(C)=O)/C=C/C1C` (stereo not drawn) [B35-2, (8E,12E,14E)-7-acetoxy-21-carbamoyloxy-3,6-dihydroxy-6,10,12,16,20-pentamethyl-18,19-epoxytricosa-8,12,14-trien-11-olide] here?
A: 0.5 to 100 nM

Q: `CCC(OC(=O)N1CCN(C)CC1)C(C)C1OC1CC(C)/C=C/C=C(\C)C1OC(=O)CC(O)CCC(C)(O)C(OC(C)=O)/C=C/C1C` (stereo not drawn) [B36-2, (8E,12E,14E)-7-acetoxy-21-((4-methylpiperazin-1-yl)carbonyl)oxy-3,6-dihydroxy-6,10,12,16,20-pentamethyl-18,19-epoxytricosa-8,12,14-trien-11-olide] was tested. Which IC50 did it give?
A: 0.5 to 100 nM

Q: For `CCC(O)C(C)C1OC1CC(C)/C=C/C=C(\C)C1OC(=O)CC(OC(=O)N2CCC(N3CCCCC3)CC2)CCC(C)(O)C(OC(C)=O)/C=C/C1C` (stereo not drawn) [B37-1], which IC50 is on record?
A: 0.5 to 100 nM

Q: With `CCC(O)C(C)C1OC1CC(C)/C=C/C=C(\C)C1OC(=O)CC(O)CCC(C)(O)C(OC(=O)CCl)/C=C/C1C` (stereo not drawn) [B39, (8E,12E,14E)-7-Chloroacetoxy-3,6,21-trihydroxy-6,10,12,16,20-pentamethyl-18,19-epoxytricosa-8,12,14-trien-11-olide] as the molecule, how does the IC50 read?
A: 0.5 to 100 nM

Q: How did the IC50 turn out when `CCC(O)C(C)C1OC1CC(C)/C=C/C=C(\C)C1OC(=O)CC(O)CCC(C)(O)C(OC(=O)CN2CCOCC2)/C=C/C1C` (stereo not drawn) [B40, (8E,12E,14E)-3,6,21-Trihydroxy-6,10,12,16,20-pentamethyl-7-(morpholin-4-yl)acetoxy-18,19-epoxytricosa-8,12,14-trien-11-olide] was run?
A: 0.5 to 100 nM

Q: For `CCC(O)C(C)C1OC1CC(C)/C=C/C=C(\C)C1OC(=O)CC(O)CCC(C)(O)C(OC(=O)c2ccccc2)/C=C/C1C` (stereo not drawn) [B41, (8E,12E,14E)-7-Benzoyloxy-3,6,21-trihydroxy-6,10,12,16,20-pentamethyl-18,19-epoxytricosa-8,12,14-trien-11-olide], which IC50 is on record?
A: 0.5 to 100 nM

Q: Which IC50 does the source give for `CCCC(=O)OC1/C=C/C(C)C(/C(C)=C/C=C/C(C)CC2OC2C(C)C(O)CC)OC(=O)CC(O)CCC1(C)O` (stereo not drawn) [B42] here?
A: 0.5 to 100 nM

Q: `CCC(OC(C)=O)C(C)C1OC1CC(C)/C=C/C=C(\C)C1OC(=O)/C=C\CCC(C)(O)C(OC(C)=O)/C=C/C1C` (stereo not drawn) [B43-1, (2Z,8E,12E,14E)-7,21-Diacetoxy-6-hydroxy-6,10,12,16,20-pentamethyl-18,19-epoxytricosa-8,12,14-trien-11-olide] was tested. Which IC50 did it give?
A: 0.5 to 100 nM

Q: Which IC50 does the source give for `CCC(O)C(C)C1OC1CC(C)/C=C/C=C(\C)C1OC(=O)/C=C\CCC(C)(O)C(OC(C)=O)/C=C/C1C` (stereo not drawn) [B43-2, (2Z,8E,12E,14E)-7-acetoxy-6,21-dihydroxy-6,10,12,16,20-pentamethyl-18,19-epoxytricosa-2,8,12,14-tetraen-11-olide] here?
A: 0.5 to 100 nM

Q: For `CCC(O)C(C)C1OC1CC(C)/C=C/C=C(\C)C1OC(=O)CC(O)CCC(C)(O)C(OC(N)=O)/C=C/C1C` (stereo not drawn) [B44, (8E,12E,14E)-7-Carbamoyloxy-3,6,21-trihydroxy-6,10,12,16,20-pentamethyl-18,19-epoxytricosa-8,12,14-trien-11-olide], which IC50 is on record?
A: 0.5 to 100 nM

Q: `CCC(O)C(C)C1OC1CC(C)/C=C/C=C(\C)C1OC(=O)CC(O)CCC(C)(O)C(OC(=O)NC)/C=C/C1C` (stereo not drawn) [B45, (8E,12E,14E)-3,6,21-Trihydroxy-6,10,12,16,20-pentamethyl-7-N-methylcarbamoyloxy-18,19-epoxytricosa-8,12,14-trien-11-olide] was tested. Which IC50 did it give?
A: 0.5 to 100 nM

Q: How did the IC50 turn out when `CCC(O)C(C)C1OC1CC(C)/C=C/C=C(\C)C1OC(=O)CC(O)CCC(C)(O)C(OC(=O)N(C)C)/C=C/C1C` (stereo not drawn) [B46, (8E,12E,14E)-3,6,21-Trihydroxy-6,10,12,16,20-pentamethyl-7-N,N-dimethylcarbamoyloxy-18,19-epoxytricosa-8,12,14-trien-11-olide] was run?
A: 0.5 to 100 nM

Q: `CCC(O)C(C)C1OC1CC(C)/C=C/C=C(\C)C1OC(=O)CC(O)CCC(C)(O)C(OC(=O)NCCc2ccccn2)/C=C/C1C` (stereo not drawn) [B47, (8E,12E,14E)-3,6,21-Trihydroxy-6,10,12,16,20-pentamethyl-7-N-(2-(2-pyridyl)ethyl)carbamoyloxy-18,19-epoxytricosa-8,12,14-trien-11-olide] was tested. Which IC50 did it give?
A: 0.5 to 100 nM

Q: For `CCC(O)C(C)C1OC1CC(C)/C=C/C=C(\C)C1OC(=O)CC(O)CCC(C)(O)C(OC(=O)N2CCC(O)CC2)/C=C/C1C` (stereo not drawn) [B48, (8E,12E,14E)-3,6,21-Trihydroxy-7-((4-hydroxypiperidin-1-yl)carbonyl)oxy-6,10,12,16,20-pentamethyl-18,19-epoxytricosa-8,12,14-trien-11-olide], which IC50 is on record?
A: 0.5 to 100 nM

Q: How did the IC50 turn out when `CCC(O)C(C)C1OC1CC(C)/C=C/C=C(\C)C1OC(=O)CC(O)CCC(C)(O)C(OC(=O)N2CCOCC2)/C=C/C1C` (stereo not drawn) [B49, (8E,12E,14E)-3,6,21-Trihydroxy-6,10,12,16,20-pentamethyl-7-((morpholin-4-yl)carbonyl)oxy-18,19-epoxytricosa-8,12,14-trien-11-olide] was run?
A: 0.5 to 100 nM

Q: `CCC(O)C(C)C1OC1CC(C)/C=C/C=C(\C)C1OC(=O)CC(O)CCC(C)(O)C(OC(=O)N2CCN(C)CC2)/C=C/C1C` (stereo not drawn) [B50, (8E,12E,14E)-3,6,21-Trihydroxy-6,10,12,16,20-pentamethyl-7-((4-methylpiperazin-1-yl)carbonyl)oxy-18,19-epoxytricosa-8,12,14-trien-11-olide] was tested. Which IC50 did it give?
A: 0.5 to 100 nM

Q: For `CCC(O)C(C)C1OC1CC(C)/C=C/C=C(\C)C1OC(=O)CC(O)CCC(C)(O)C(OC(=O)N2CCN(C(C)=O)CC2)/C=C/C1C` (stereo not drawn) [B51, (8E,12E,14E)-7-((4-Acetylpiperazin-1-yl)carbonyl)oxy-3,6,21-trihydroxy-6,10,12,16,20-pentamethyl-18,19-epoxytricosa-8,12,14-trien-11-olide], which IC50 is on record?
A: 0.5 to 100 nM

Q: `CCC(O)C(C)C1OC1CC(C)/C=C/C=C(\C)C1OC(=O)CC(O)CCC(C)(O)C(OC(=O)N2CCNCC2)/C=C/C1C` (stereo not drawn) [B52, (8E,12E,14E)-3,6,21-Trihydroxy-6,10,12,16,20-pentamethyl-7-((piperazin-1-yl)carbonyl)oxy-18,19-epoxytricosa-8,12,14-trien-11-olide] was tested. Which IC50 did it give?
A: 0.5 to 100 nM

Q: How did the IC50 turn out when `CCC(O)C(C)C1OC1CC(C)/C=C/C=C(\C)C1OC(=O)CC(O)CCC(C)(O)C(OC(=O)NCCOC)/C=C/C1C` (stereo not drawn) [B53, (8E,12E,14E)-3,6,21-Trihydroxy-7-(N-(2-methoxyethyl))carbamoyloxy-6,10,12,16,20-pentamethyl-18,19-epoxytricosa-8,12,14-trien-11-olide] was run?
A: 0.5 to 100 nM
